Ki data for eight compounds are collected here from ChEMBL document CHEMBL1139750, “Arylsulfonamides: a study of the relationship between activity and conformational preferences for a series of factor Xa inhibitors” (Bioorg Med Chem Lett, 2006).

By Ki is commonly meant a measure of affinity in units of concentration, obtained from inhibition or displacement.

For this test, the target named is Coagulation factor X (Homo sapiens, UniProt P00742). The test is described as follows: Binding affinity at factor 10a.
Chain of Coagulation factor X (P00742 41-179 limits assumed): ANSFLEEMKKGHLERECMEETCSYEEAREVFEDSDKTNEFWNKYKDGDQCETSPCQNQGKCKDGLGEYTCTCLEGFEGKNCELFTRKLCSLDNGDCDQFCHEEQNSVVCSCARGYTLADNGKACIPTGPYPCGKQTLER
Chain of Coagulation factor X (P00742 235-488 limits assumed): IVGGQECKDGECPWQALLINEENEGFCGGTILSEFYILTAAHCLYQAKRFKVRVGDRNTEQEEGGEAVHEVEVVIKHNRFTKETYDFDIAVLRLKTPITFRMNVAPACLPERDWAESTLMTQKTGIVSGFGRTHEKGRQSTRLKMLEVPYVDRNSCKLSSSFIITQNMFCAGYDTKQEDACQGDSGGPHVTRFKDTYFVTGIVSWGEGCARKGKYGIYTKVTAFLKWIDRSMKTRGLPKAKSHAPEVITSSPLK
In turn, `C[C@@H](C(=O)N1CCOCC1)N1CC[C@H](NS(=O)(=O)c2cc3ccc(Cl)cc3s2)C1=O` displayed a Ki of 15 nM.

The compound `C[C@@H](C(=O)N1CCOCC1)N1CC[C@H](NS(=O)(=O)c2cc3cc(Cl)ccc3o2)C1=O` came in with a Ki of 782 nM.

Compound `C[C@@H](C(=O)N1CCOCC1)N1CC[C@H](NS(=O)(=O)c2cc3cc(Cl)ccc3s2)C1=O` showed a Ki of 47 nM.

For the compound `C[C@@H](C(=O)N1CCOCC1)N1CC[C@H](NS(=O)(=O)c2cc3ccc(Cl)cc3[nH]2)C1=O`, the Ki was found to be 170 nM.

For `C[C@@H](C(=O)N1CCOCC1)N1CC[C@H](NS(=O)(=O)c2cc3ccc(Cl)cc3o2)C1=O`, the Ki amounted to 285 nM.

With `C[C@@H](C(=O)N1CCOCC1)N1CC[C@H](NS(=O)(=O)c2nc3ccc(Cl)cc3s2)C1=O`, the Ki was 4160 nM.

The compound `C[C@@H](C(=O)N1CCOCC1)N1CC[C@H](NS(=O)(=O)c2nc3cc(Cl)ccc3s2)C1=O` showed a Ki of 112 nM.

In the case of `C[C@@H](C(=O)N1CCOCC1)N1CC[C@H](NS(=O)(=O)c2cc3cc(Cl)ccc3[nH]2)C1=O`, the inhibitory constant (Ki) worked out at 90 nM.
